# Reference: US20070254288A1, “Diagnostic methods for pain sensitivity and chronicity and for tetrahydrobiopterin-related disorders” (The General Hospital Corporation, priority 2005, published 2007)
# Entries after “also recorded” stand apart in the source; their conditions may differ.
# Key:
# Sprague Dawley rats [1] = assay: Spared nerve injury (SNI) model: mechanical (von Frey) and cold (acetone) allodynia; assay type: in vivo, rat
# Procedure: (§1) Adult male Sprague Dawley rats (150-200 g, Charles River Laboratories) were used. For the SNI model two branches of the sciatic nerve, the common peroneal and the tibial nerve, were ligated and sectioned distally. For the CCI model the sciatic nerve was constricted with three Dexon 4/0 ligatures. For the SNL model, the L5 spinal nerve was tightly ligated. All surgical procedures were under isoflurane anesthesia. For the Formalin test 50 μl of 5% formaldehyde solution were injected into a hindpaw and flinches were counted per minute up to 60 min. Paw inflammation was induced with 50 μl complete Freund's adjuvant (CFA) injected into a hindpaw. Nociceptive analysis was done blinded, and animals were fully habituated to the room and test cages. Mechanical allodynia was assessed with graded strength monofilament von Frey hairs (0.0174-20.9 gram, log scaled), cold allodynia with the acetone test and heat hyperalgesia with the Hargreaves test. Drugs (Sigma) were injected intraperitoneally or intrathecally through a spinal catheter, osmotic pumps were used for infusion. Control animals received vehicle. L4/5 DRG and spinal cord tissue was processed for QRT-PCR, Western blotting, in situ hybridization and immunofluorescence studies.
# (§2) Animals were fully habituated and experiments performed blinded. Threshold for eliciting a withdrawal reflex to graded strength monofilament von Frey hairs (0.0174-20.9 g) was measured to assess mechanical allodynia. To measure cold allodynia, a drop of acetone was applied to the plantar hindpaw, and the time the animal spent licking, shaking or lifting the paw was measured (Tegeder et al., J Neurosci 24:1637-1645 (2004)). Paw withdrawal latency to radiant heat (lamp with 8 V, 50 W) assessed heat evoked pain (Ugo Basile).
# (§3) DAHP was dissolved in 1:1 polyethylene glycol (PEG400) and 1×PBS, pH 7.4 (15 mg/ml) and administered i.p. or intrathecally (250 μg/kg/h; 5 μl/h). For all i.t. injections/infusions a spinal catheter (Recathco) was used and implanted as described (Kunz et al., Pain 110:409-418 (2004)). Infusions with an osmotic pump (Alzet). 6R-BH4 in ACSF was injected i.t. (10 μg, single 10 μl injection). N-acetyl-serotonin in 1×PBS pH 7.4 containing 3% ethanol was delivered by i.t. infusion (100 μg/kg/h; 5 μl/h). Control animals received the appropriate vehicle. All drugs from Sigma-Aldrich.
# Data are means ±SEM. The number of animals per group was 9-12. Areas under the “effect versus time” curves (AUC) were calculated using the linear trapezoidal rule and compared with Student's t-test or univariate analysis of variance (ANOVA) with subsequent t-tests employing a Bonferroni alpha-correction for multiple comparisons. All other data were analyzed with univariate ANOVA or ANOVA for repeated measurements. P at 0.05 for all tests.
# Sprague Dawley rats [2] = assay: Chronic constriction injury (CCI) model: mechanical and cold allodynia; assay type: in vivo, rat; conditions: 180 mg/kg i.p.
# Procedure: as §1, with “Nociceptive analysis was done blinded, and animals were fully habituated to the room and test cages.” left out, “Drugs (Sigma) were injected intraperitoneally or intrathecally through a spinal catheter, osmotic pumps were used for infusion. Control animals received vehicle. L4/5 DRG and spinal cord tissue was processed for QRT-PCR, Western blotting, in situ hybridization and immunofluorescence studies.” left out
# (§4) Animals were fully habituated and experiments performed blinded. Threshold for eliciting a withdrawal reflex to graded strength monofilament von Frey hairs (0.0174-20.9 g) was measured to assess mechanical allodynia. To measure cold allodynia, a drop of acetone was applied to the plantar hindpaw, and the time the animal spent licking, shaking or lifting the paw was measured (Tegeder et al., J Neurosci 24:1637-1645 (2004)). Paw withdrawal latency to radiant heat (lamp with 8 V, 50 W) assessed heat evoked pain (Ugo Basile). […]
# Sprague Dawley rats [3] = assay: Spinal nerve ligation (SNL) model: mechanical and cold allodynia; assay type: in vivo, rat; conditions: 180 mg/kg i.p.
# Procedure: as §1, with “Nociceptive analysis was done blinded, and animals were fully habituated to the room and test cages.” left out, “Drugs (Sigma) were injected intraperitoneally or intrathecally through a spinal catheter, osmotic pumps were used for infusion. Control animals received vehicle. L4/5 DRG and spinal cord tissue was processed for QRT-PCR, Western blotting, in situ hybridization and immunofluorescence studies.” left out
# as §4
# Sprague Dawley rats [4] = assay: CFA-induced paw inflammation: thermal hyperalgesia (Hargreaves); assay type: in vivo, rat
# Procedure: as §1, with “Drugs (Sigma) were injected intraperitoneally or intrathecally through a spinal catheter, osmotic pumps were used for infusion. Control animals received vehicle. L4/5 DRG and spinal cord tissue was processed for QRT-PCR, Western blotting, in situ hybridization and immunofluorescence studies.” left out
# (§5) For the Formalin test 50 μl of 5% formaldehyde solution were injected into one hindpaw and flinches were counted per minute up to 60 min. […]
# as §2
# Data are means ±SEM. […] Areas under the “effect versus time” curves (AUC) were calculated using the linear trapezoidal rule and compared with Student's t-test or univariate analysis of variance (ANOVA) with subsequent t-tests employing a Bonferroni alpha-correction for multiple comparisons. All other data were analyzed with univariate ANOVA or ANOVA for repeated measurements. […]
# Sprague Dawley rats [5] = assay: Formalin test: flinching and cFos immunoreactive dorsal horn neurons; assay type: in vivo, rat
# Procedure: as §1, §5
# [6] = system: BH4 synthesis (GTP cyclohydrolase activity); assay: Tissue concentrations of neopterin and biopterin in L4/5 DRGs (LC/MS-MS); assay type: in vivo, rat; conditions: single 180 mg/kg i.p. 3 hours before dissection, 180 mg/kg
# Procedure: Homogenized tissue was oxidized with iodine, and pteridines were extracted on Oasis MCX cartridges. Concentrations of total biopterin, neopterin, and the internal standard rhamnopterin were determined by LC/MS-MS. LC analysis under gradient conditions on a Nucleosil C8 column; MS-MS analyses on an API 4000 Q TRAP triple quadrupole mass spectrometer. Precursor-to-product ion transitions of m/z 236→192 for biopterin, m/z 252→192 for neopterin, m/z 265→192 for rhamnopterin were used for the MRM. Linearity from 0.1-50 ng/ml. The coefficient of correlation for all measured sequences was at least 0.99. The intra-day and inter-day variability was <10%.
# [7] = Plasma and CSF concentrations of DAHP (LC/MS-MS); assay type: in vivo, rat; conditions: after i.p. injection of 180 mg/kg; compared with IC50 range 100-300 μM
# Procedure: Concentrations of DAHP were determined LC/MS-MS on a tandem quadrupole mass spectrometer (PE Sciex API 3000; Applied Biosystems). Extraction was by acetonitrile precipitation; chromatographic separation was performed on a Nucleosil C18 Nautilus column (125×4 mm I.D., 5 μm particle size, 100 Å pore size). Mobile phase was acetonitrile:water (80:20%, v/v), and formic acid (0.1%, v/v). Flow rate was 0.2 ml/min, and injection volume was 5 μl. DAHP eluted at 4.7 min. Mass spectrometer in positive ion mode, 5200 V, 400° C., auxiliary gas flow 6 l/min. The mass transition for the MRM was m/z 127→60. Quantification with Analyst software V1.1 (Applied Biosystems). Coefficient of variation over the calibration range of 10-4000 ng/ml <5%.
# Sprague Dawley rats [8] = assay: Nociceptive thresholds in naïve animals (von Frey, radiant heat); assay type: in vivo, rat; conditions: naïve animals, 180 mg/kg i.p.; 180 mg/kg
# Procedure: as §2, §3
# Rats = assay: Forced Swim Test; assay type: in vivo, rat; conditions: 180 mg/kg i.p., 3 injections
# Procedure: FIGS. 8A-8D show the effects of DAHP injection. […] DAHP (250 μg/kg/h) was delivered to the lumbar spinal cord via a chronically implanted spinal catheter connected to an osmotic Alzet pump. Infusion started right after SNI surgery and continued 14 days, flow rate 5 μl/h (n=8, p<0.05). […] Effect versus time AUCs were used for statistical comparisons. […] Rats (n=7 per condition) received 3 separate injections of DAHP (180 mg/kg, i.p.), at 1 hr, 19 hrs, and 23 hrs after the first exposure to forced swimming. This commonly used treatment regimen identifies in rats agents with antidepressant or pro-depressant effects in humans (Mague et al., J Pharmacol Exp Ther 305:323-330 (2003)). Retest sessions (forced swim for 300 sec) occurred 24 hr after the first swim exposure and were videotaped from the side of the water cylinders and scored by raters unaware of the treatment condition. Rats were rated at 5 sec intervals throughout the duration of the retest session; at each 5 sec interval the predominant behavior was assigned to one of four categories: immobility, swimming, climbing, or diving. The sum of these scores are shown for each modality. For all panels, error SEM.
# nitric oxide production = assay: Nitric oxide production in L4/5 DRGs after SNI; assay type: in vivo, rat; conditions: 7 d after SNI, once daily treatment
# serotonin = assay: Serotonin concentrations in spinal cord and brain stem; assay type: in vivo, rat; conditions: data not shown
# [9] = Observation of general well-being, body weight, gait, activity; assay type: in vivo, rat; conditions: acute single or daily treatment, 180 mg/kg i.p.; 180 mg/kg
# GTP cyclohydrolase = conditions: determined in vitro (Kolinsky and Gross 2004; Xie et al. 1998); read-out: IC50 range for GTP cyclohydrolase inhibition; cited from earlier work
# GCH1 = assay: LPS induction of GCH1 in cells of haplotype carriers and non-carriers; assay type: cell-based, human; conditions: cells of individuals with versus without the pain protective haplotype
# [10] = repeated daily injections, measured two-three hours after injection
compound,measurement,setting,value
"Nc1cc(O)nc(N)n1 [DAHP, 2,4-diamino-6-hydroxypyrimidine]","mechanical and cold pain hypersensitivity, established",Sprague Dawley rats [1]; 180 mg/kg/d i.p. starting 17 days after nerve injury,produced a significant reduction of mechanical and cold pain hypersensitivity; also recorded: decreases pain hypersensitivity
same,"relative efficacy, extent of return to pre-surgery baseline values","Sprague Dawley rats [1]; SNI model, versus comparators measured earlier (Decosterd et al. 2004)","exceeds that of non-sedating doses of morphine, gabapentin, amitriptyline, and carbamazepine"
same,analgesia on repeated daily administration,"Sprague Dawley rats [1]; SNI, repeated daily administration",continues to produce analgesia without obvious loss of activity
same,dose dependence of effect on mechanical and cold allodynia,"Sprague Dawley rats [1]; SNI, repeated daily i.p. injections",dose dependent efficacy; also recorded: dose-dependent reductions in mechanical and cold allodynia
same,mechanical and cold allodynia,"Sprague Dawley rats [1]; continuous intrathecal infusion 250 μg/kg/h, 14 days from SNI surgery",reduces mechanical and cold allodynia
same,"linear relationship between dose and effect (R), cold allodynia",Sprague Dawley rats [1]; [10],0.754
same,"linear relationship between dose and effect (R), mechanical allodynia",Sprague Dawley rats [1]; [10],0.709
same,time to reversal of mechanical and cold pain hypersensitivity,Sprague Dawley rats [1]; single dose 180 mg/kg i.p. four days after SNI,≤ 60 min
same,mechanical (von Frey) and cold allodynia,"Sprague Dawley rats [1]; single dose 180 mg/kg i.p. four days after SNI, 180 mg/kg",significantly reduced mechanical (von Frey) and cold allodynia; also recorded: reverses mechanical and cold pain hypersensitivity
same,mechanical and cold allodynia,Sprague Dawley rats [2],analgesic effects; also recorded: dose-dependent reductions in mechanical and cold allodynia
same,mechanical and cold allodynia,Sprague Dawley rats [3],analgesic effects; also recorded: dose-dependent reductions in mechanical and cold allodynia
same,thermal hyperalgesia,"Sprague Dawley rats [4]; 180 mg/kg i.p., before CFA and 24 hours after CFA",significantly reduced thermal hyperalgesia; also recorded: reduce CFA-evoked heat hyperalgesia
same,thermal hyperalgesia,"Sprague Dawley rats [4]; single intrathecal injection of 1 mg/kg, 1 mg/kg",reduced thermal hyperalgesia
same,formalin-induced flinching behavior,"Sprague Dawley rats [5]; 180 mg/kg i.p. before formalin, first and second phases",significantly reduced formalin-induced flinching behavior in both phases; also recorded: significantly reduces the flinching behavior in the first and second phases
same,number of cFos immunoreactive neurons in ipsilateral dorsal horn,"Sprague Dawley rats [5]; 180 mg/kg i.p., two hours after formalin injection",reduced number of cFOS immunoreactive neurons; also recorded: significant reduction in the number of cFos immunoreactive neurons
same,biopterin levels in ipsilateral L4/5 DRGs,[6]; 24 h after CFA,reduced neopterin and biopterin; also recorded: significantly reduces elevated biopterin levels
same,neopterin levels in ipsilateral L4/5 DRGs,[6]; 24 h after CFA,reduced neopterin and biopterin; also recorded: completely prevents the inflammation-evoked increase of neopterin
same,biopterin levels in L4/5 DRGs,[6]; 7 days after SNI,reduced neopterin and biopterin; also recorded: significantly reduces biopterin levels
same,neopterin levels in L4/5 DRGs,[6]; 7 days after SNI,reduced neopterin and biopterin; also recorded: completely prevents the nerve injury induced increases in neopterin
same,plasma and CSF concentrations,[7],within the IC50 range
same,mechanical threshold and radiant heat paw withdrawal latency,Sprague Dawley rats [8],failed to modify mechanical and thermal threshold; also recorded: did not change the mechanical threshold for paw withdrawal or radiant heat evoked paw withdrawal latency
same,performance in the forced swim test,Rats,had no effect
same,nitric oxide levels in L4/5 DRGs,nitric oxide production,normalization of NO levels; also recorded: prevented by DAHP treatment
same,serotonin concentrations in spinal cord and brain stem,serotonin,"did not, however, significantly reduce serotonin concentrations"
same,"general well-being, body weight, gait, activity",[9],No deleterious effect; also recorded: had no effect
same,IC50,GTP cyclohydrolase,100 to 300 µM
lipopolysaccharide [LPS],GCH1 induction,GCH1,induced GCH1 to a lesser extent
